Test results published in US20030143191A1, “Chemokine beta-1 fusion proteins” (priority 2001, published 2003).

Columns and labels:
HIV = conditions: cited from earlier work
NF-KB = test: NF-KB/SV40/SEAP reporter assay in Jurkat T-cells; type: cell-based; conditions: NF-KB/SV40/SEAP/Neo Jurkat T-cells; 0.1, 1, 10 ng; positive control
Excerpt: NF-KB (Nuclear Factor KB) is a transcription factor activated by a wide variety of agents including the inflammatory cytokines IL-1 and TNF, CD30 and CD40, lymphotoxin-alpha and lymphotoxin-beta, by exposure to LPS or thrombin, and by expression of certain viral gene products. As a transcription factor, NF-KB regulates the expression of genes involved in immune cell activation, control of apoptosis (NF-KB appears to shield cells from apoptosis), B and T-cell development, anti-viral and antimicrobial responses, and multiple stress responses.
Due to its central role and ability to respond to a range of stimuli, reporter constructs utilizing the NF-KB promoter element are used to screen the fusion protein. Activators or inhibitors of NF-KB would be useful in treating, preventing, and/or diagnosing diseases. For example, inhibitors of NF-KB could be used to treat those diseases related to the acute or chronic activation of NF-KB, such as rheumatoid arthritis.
To construct a vector containing the NF-KB promoter element, a PCR based strategy is employed. The upstream primer contains four tandem copies of the NF-KB binding site ([…]) (SEQ ID NO: 48), 18 bp of sequence complementary to the 5′ end of the SV40 early promoter sequence, and is flanked with an XhoI site: […]

Compound: CC[C@H]1C(=O)Nc2ccc(F)cc2N1C(=O)OC(C)C [GW-420867×]
- activity relative to HBY097 (HIV): 25 fold

Compound: Nc1nc(=O)n([C@@H]2CS[C@H](CO)O2)cc1F [emtricitabine]
- activity in vitro relative to lamivudine (3TC) (HIV; in vitro): 3- to 10 fold

Compound: TNF alpha
- activation (SEAP reporter activity) (NF-KB): 5-10 fold

Compound: C[C@H](Sc1nc(N)cc(Cl)n1)c1cc2ccoc2cn1 [PNU-142721]
- activity relative to its predecessor delavirdine (HIV): 20- to 50 fold
